Data reported in patent US11369625B2, “Anti-tumor agent, anti-tumor effect enhancer, and anti-tumor kit” (FUJIFILM Corporation, priority 2017, dated 2022).

What was measured:
[1] = system: human pancreatic cancer cell line Capan-1; assay: Combinational effect test in Capan-1 subcutaneously implanted tumor-bearing model mouse (anti-tumor effect); format: in vivo, BALB/cA Jcl-nu mice; set-up: key to vs. control: * statistically significant; settings: for T/C (%): average RTV of treated group / average RTV of control group x 100, Day 33; for GC (%): growth of control, calculated from RTV at Day 33; for RTV (mean ± standard deviation): relative tumor volume, TV at Day 33 / TV at Day 1, tail vein once a week, three times, n=8; for vs. control: statistical significance of RTV vs. control group, Day 33
Protocol: Combinational effect test in Capan-1 subcutaneously implanted tumor-bearing model mouse
Gemcitabine (hereinafter, also referred to as Gem), Abraxane (hereinafter, also referred to as Abx), and methanesulfonate of Compound A were used as test substances.
Gemcitabine was prepared by dissolving gemcitabine hydrochloride (manufactured by Teva Pharmaceutical Industries Limited) in physiological saline. Abraxane was prepared by dissolving Abraxane (manufactured by Celgene Corporation) in physiological saline.
Capan-1 cell, a human pancreatic cancer cell line, was subcutaneously injected into the posterior flank of 5 to 6-week old female BALB/cA Jcl-nu mice. After tumor implantation, the major diameter (mm) and minor diameter (mm) of the tumor were measured, and the tumor volume (TV) was calculated. Mice were assigned to each group so that the average TV of each group was equal, and the day on which this grouping (n=8) was carried out was taken as Day 1.
The test liquid in Abraxane alone group was prepared to be 30 mg/kg/day as the administration dose. In addition, the test liquid in Compound A alone group was prepared to be 480 mg/kg/day. Compound A was administered from the mouse tail vein a total of three times from Day 1 once a week, and Abraxane was similarly administered from the mouse tail vein a total of three times from Day 1 once a week. In the combined administration group, Compound A was administered at 480 mg/kg/day and Abraxane was administered at 30 mg/kg/day.
As a comparative experiment, gemcitabine was used as a control. The test liquid of gemcitabine alone group was prepared to be 240 mg/kg/day. Gemcitabine was administered from the mouse tail vein a total of three times from Day 1 once a week. In the combined administration group, gemcitabine was administered at 240 mg/kg/day and Abraxane was administered at 30 mg/kg/day.
In this test, doses of Compound A and gemcitabine were set using MTD of each drug. Abraxane was used at the maximum dose usable in combination with each drug. […] In this test example, the MTD and the maximum effect dose are almost synonymous.
As an index of anti-tumor effect, TV at Day 33 was measured in each drug administration group. According to the following equation, a relative tumor volume (RTV) with respect to Day 1 and T/C (%) were calculated to evaluate the anti-tumor effect. […] TV (mm^3)=(major diameter×minor diameter^2)/2 RTV=(TV at Day 33)/(TV at Day 1) T/C (%)=[(average RTV value of test liquid administered group)/(average RTV value of control group)]×100
On the combinational effect of the present invention, the results of evaluation using a combination index (CI) which is a quantitative index of the combinational effect are shown. The CI can be calculated by the following equation according to Cancer Research, 2010, Vol. 70, pp. 440 to 446.
That is, in the case where the drugs to be used in combination are drugs 1 and 2, CI=(T/C at the time of combination use)÷100/{[(T/C of drug 1)÷100]×[(T/C of drug 2)÷100]} CI=1: additive effect CI>1: antagonistic effect CI<1: synergistic effect
In addition, on the combinational effect of the present invention, the results of evaluation using a tumor growth inhibitory effect (growth of control (GC)) are shown. For the evaluation method, the same method as in B of FIG. 5 of Molecular Cancer Therapeutics, 2013, Vol. 12, pp. […] was used.
As described in the above document, the GC can be calculated by the following equation. In the case where RTV>1 GC (%)=[(corresponding drug RTV-1)/(control RTV-1)]×100 [1] In the case where RTV≤1 GC (%)=(corresponding drug RTV-1)×100 [2]
Combinational effect was estimated from the drug efficacy with Abraxane and Compound A or gemcitabine alone by the following calculation equation. The estimated combination use GC (%)=[GC (%) of Abraxane×drug alone GC (%)]÷100

[2] = system: tumor; settings: oral administration to mice; cited from earlier work

Row | Compound | enhancement of anti-tumor effect in combination use ([1]; Compound A 480 mg/kg/day with Abraxane 30 mg/kg/day, nude mice) | T/C (%) [1] [%] | GC (%) [1] [%] | RTV (mean ± standard deviation) [1] | vs. control [1] | anti-tumor activity [2]
1 | Nc1ccn([C@@H]2S[C@H](CO)[C@@H](O)[C@@H]2F)c(=O)n1 [Compound A, 1-(2-deoxy-2-fluoro-4-thio-β-D-arabinofuranosyl)cytosine] | significantly enhanced the anti-tumor effect of Abraxane | 32.2 | 9.6 | 1.29 ± 0.59 | * | potent anti-tumor activity
2 | Nc1ccn([C@@H]2O[C@H](CO)[C@@H](O)C2(F)F)c(=O)n1 [Gem, gemcitabine, reference compound] |  | 68.3 | 57.8 | 2.74 ± 0.41 | * | 
